US6670145B2, “Method for detection of total coliforms and E. coli” (The United States of America as represented by the …, priority 1991, dated 2003)
Where a name gives a salt, the structure may show the parent alone.

Legend:
total coliform colonies = assay: Other β-galactosidase substrates tested with IBDG in the selective base medium; type: cell-based, total coliforms; settings: β-galactosidase substrate tested with IBDG in selective base medium
From the text: (§1) The selective base medium without the substrates MUGal and IBDG (with or without agar) can be used with other β-galactosidase and β-glucuronidase substrates for the detection of total coliforms and/or E. coli. For example, each of three other β-galactosidase substrates (2-Nitrophenyl-β-D-galactopyranoside, Chlorophenol Red-β-galactopyranoside, and Resorufin-β-D-Galactopyranoside) have been tested with IBDG in this lab. […] We believe other combinations of substrates in this base medium would also work in the various embodiments described in this document, and different enzyme substrates (other than β-galactosidase and β-glucuronidase substrates) for specific coliforms could be used in this base medium because of its selectivity. The following guidance is provided for choosing ingredients for the alternative embodiments.

[1] = tested on: Klebsiella pneumoniae (EPA 207); assay: Confirmatory spot test with enzyme substrates; type: cell-based; parameters: key: +: A positive reaction is shown by fluorescence of the well under long wave ultraviolet light; settings: 35° C., up to 24 hours, UV 366 nm
Procedure: (§2) One hundred microliter volumes of a bacterial suspension were placed in three wells of a sterile porcelain spot test plate or other suitable plate with wells. The bacterial suspension was obtained in one of the following ways:
(§3) 1. A loopful of bacterial growth from a slant or an isolated colony from an agar plate was emulsified in a small amount of the liquid MI broth medium without substrates or other non-selective broths.
(§4) 2. Aliquots of 100 μl of a bacterial culture grown over-night at 35° C. in a non-selective broth or the liquid medium without substrates were used.
(§5) Sixty microliters of a freshly-prepared, filter-sterilized 16 mg/ml IBDG solution was added to one well of bacterial suspension, and 300 μl of a freshly-prepared, filter-sterilized 1 mg/ml MUGal solution was added to a second well. The third well, containing only bacterial suspension (negative control), was used as a comparator to distinguish positive and negative wells. Additional wells were inoculated with uninoculated medium, IBDG, and MUGal as controls. The plates were covered with sterile foil and incubated at 35° C. for up to 24 hours. […] This test could also be performed by adding all of the test liquids and culture or sample to a piece of filter paper or to an absorbent pad and observing the reactions.

[2] = tested on: Enterobacter aerogenes (EPA 202); assay: Confirmatory spot test with enzyme substrates; type: cell-based; parameters: key: +: A positive reaction is shown by fluorescence of the well under long wave ultraviolet light; settings: 35° C., up to 24 hours, UV 366 nm
Procedure: as §2, §3, §4, §5

[3] = tested on: Escherichia coli (ATCC 25922); assay: Confirmatory spot test with enzyme substrates; type: cell-based; parameters: key to Reactions in Wells Containing: MUGal (fluorescence): +: A positive reaction is shown by fluorescence of the well under long wave ultraviolet light; key to Reactions in Wells Containing: IBDG (blue color): +: A positive reaction is shown by production of a blue color in the well; settings: 35° C., up to 24 hours
Procedure: as §2, §3, §4, §5

[4] = tested on: Escherichia coli (EPA 206); assay: Confirmatory spot test with enzyme substrates; type: cell-based; parameters: key to Reactions in Wells Containing: MUGal (fluorescence): +: A positive reaction is shown by fluorescence of the well under long wave ultraviolet light; key to Reactions in Wells Containing: IBDG (blue color): +: A positive reaction is shown by production of a blue color in the well; settings: 35° C., up to 24 hours
Procedure: as §2, §3, §4, §5

E. coli colonies = assay: Other β-galactosidase substrates tested with IBDG in the selective base medium; type: cell-based; settings: IBDG with each of three other β-galactosidase substrates in selective base medium
From the text: as §1

O=S1(=O)OC(c2ccc(O)c(Cl)c2)(c2ccc(O[C@@H]3O[C@H](CO)[C@H](O)[C@H](O)[C@H]3O)c(Cl)c2)c2ccccc21 (stereo partly drawn) [Chlorophenol Red-β-galactopyranoside]
colors of the total coliform colonies (total coliform colonies): orchid

Cc1cc(=O)oc2cc(O[C@@H]3O[C@H](CO)[C@H](O)[C@H](O)[C@H]3O)ccc12 [MUGal, 4-Methylumbelliferyl-Beta-D-galactopyranoside]
Reactions in Wells Containing: MUGal (fluorescence) [1]: +
Reactions in Wells Containing: MUGal (fluorescence) [2]: +
Reactions in Wells Containing: MUGal (fluorescence) ([3]; UV 366 nm): +
Reactions in Wells Containing: MUGal (fluorescence) ([4]; UV 366 nm): +

O=C(O)[C@H]1O[C@@H](Oc2c[nH]c3ccccc23)[C@H](O)[C@@H](O)[C@@H]1O [IBDG, Indoxyl-Beta-D-glucuronide, sodium salt or cyclohexylammonium salt]
color of the E. coli colonies (E. coli colonies): varying shades of blue
Reactions in Wells Containing: IBDG (blue color) [3]: +
Reactions in Wells Containing: IBDG (blue color) [4]: +

O=[N+]([O-])c1ccccc1O[C@@H]1O[C@H](CO)[C@H](O)[C@H](O)[C@H]1O [2-Nitrophenyl-β-D-galactopyranoside]
colors of the total coliform colonies (total coliform colonies): yellow

O=c1ccc2nc3ccc(O[C@@H]4O[C@H](CO)[C@H](O)[C@H](O)[C@H]4O)cc3oc-2c1 [Resorufin-β-D-Galactopyranoside]
colors of the total coliform colonies (total coliform colonies): pink-red
